{
  "source": "patent US10376520B2",
  "about": "“Methods for the treatment of cardiovascular disorders” (Galapagos NV, priority 2015, dated 2019)",
  "key": {"[1]": {"system": "RA patients", "experiment": "Plasma CETP concentration (ELISA), Study 4", "format": "in vivo, human", "details": "for CETP level, 4 weeks CFB: 4 weeks change from baseline", "method": "Randomized double-blind, placebo-controlled add on study in subjects with active RA who have an inadequate response to MTX monotherapy, in combination with methotrexate, administered for 4 weeks in the treatment of subjects with active rheumatoid arthritis who have an inadequate response to methotrexate alone.\nCompound 1 (dosed as a [Compound 1:HCl:3H2O]) capsules administered orally in 30 mg, 75 mg, 150 mg, or 300 mg doses per day for 4 weeks.\nPlasma CETP concentration was determined using a commercial available ELISA kit from Alpco (26-G Keewaydin Drive, Salem, N.H. 03079 USA) according to manufacturer's instruction. Catalogue number 47-CETH-E01, lot number used: 812RCL."}, "[2]": {"system": "Subjects With Active Crohn's Disease", "experiment": "Atherogenic index, Study 5 (Crohn's disease)", "format": "in vivo, human", "from_the_text": "As used herein, the term ‘atherogenic index’ refers to\nThis is a double-blind, randomized, placebo-controlled, multi-centre Phase 2 study to investigate the efficacy and safety of Compound 1 administered once daily for the treatment of active CD with evidence of mucosal ulceration. The pharmacokinetics (including a PK substudy) and pharmacodynamics of Compound 1 and metabolite in CD will also be characterised.\nA total of 180 eligible subjects will be randomized to receive Compound 1 or placebo in addition to their stable background treatment (eg, corticosteroids, aminosalicylates, or CD-related antibiotics). The study will consist of 2 parts, with total treatment duration of 20 weeks. Randomization in Part 1 will be stratified according the subject's previous anti-TNF exposure/response, CRP level at Screening, and oral corticosteroid use at visit Day −1.\nAfter the first 10 weeks of treatment in Part 1, patients will be re-randomized for Part 2 as shown in the diagram below and will be stratified according to the subject's clinical response, previous anti-TNF exposure/response, and oral corticosteroid use at visit Day −1.\nThe atherogenic index has been identified to be a good predictor of cardiovascular disorders risks and is calculated as follows: […]"}, "[3]": {"details": "200 mg q.d. continued week 10 to 20, week 2"}, "[4]": {"details": "200 mg q.d. continued week 10 to 20, week 4"}, "[5]": {"details": "200 mg q.d. continued week 10 to 20, week 6"}, "[6]": {"details": "200 mg q.d. continued week 10 to 20, week 10"}, "[7]": {"details": "200 mg q.d. continued week 10 to 20, week 12"}, "[8]": {"details": "200 mg q.d. continued week 10 to 20, week 16"}, "[9]": {"details": "200 mg q.d. continued week 10 to 20, week 20"}, "[10]": {"details": "200 mg q.d. week 0 to 10, to 100 mg q.d. week 10 to 20, week 2"}, "[11]": {"details": "200 mg q.d. week 0 to 10, to 100 mg q.d. week 10 to 20, week 4"}, "[12]": {"details": "200 mg q.d. week 0 to 10, to 100 mg q.d. week 10 to 20, week 6"}, "[13]": {"details": "200 mg q.d. week 0 to 10, to 100 mg q.d. week 10 to 20, week 10"}, "[14]": {"details": "200 mg q.d. week 0 to 10, to 100 mg q.d. week 10 to 20, week 12"}, "[15]": {"details": "200 mg q.d. week 0 to 10, to 100 mg q.d. week 10 to 20, week 16"}, "[16]": {"details": "200 mg q.d. week 0 to 10, to 100 mg q.d. week 10 to 20, week 20"}},
  "data": [
    {"smiles": "O=C(Nc1nc2cccc(-c3ccc(CN4CCS(=O)(=O)CC4)cc3)n2n1)C1CC1", "note": "[Compound 1, cyclopropanecarboxylic acid {5-[4-(1,1-dioxo-thiomorpholin-4-ylmethyl)-phenyl]-[1,2,4]triazolo[1,5-a]pyridin-2yl}-amide]", "values": [
      {"measurement": "CETP level, 4 weeks CFB", "setting": "[1]; 30 mg q.d.", "value": 2.4, "unit": "%"},
      {"measurement": "CETP level, Baseline", "setting": "[1]; 30 mg q.d.", "value": 3.2, "unit": "µg/mL"},
      {"measurement": "CETP level, week 4", "setting": "[1]; 30 mg q.d.", "value": 3.2, "unit": "µg/mL"},
      {"measurement": "CETP level, 4 weeks CFB", "setting": "[1]; 75 mg q.d.", "value": "−2.8", "unit": "%"},
      {"measurement": "CETP level, Baseline", "setting": "[1]; 75 mg q.d.", "value": 2.8, "unit": "µg/mL"},
      {"measurement": "CETP level, week 4", "setting": "[1]; 75 mg q.d.", "value": 2.7, "unit": "µg/mL"},
      {"measurement": "CETP level, 4 weeks CFB", "setting": "[1]; 150 mg q.d.", "value": "−11.4", "unit": "%"},
      {"measurement": "CETP level, Baseline", "setting": "[1]; 150 mg q.d.", "value": 2.8, "unit": "µg/mL"},
      {"measurement": "CETP level, week 4", "setting": "[1]; 150 mg q.d.", "value": 2.3, "unit": "µg/mL"},
      {"measurement": "CETP level, 4 weeks CFB", "setting": "[1]; 300 mg q.d.", "value": "−10.2", "unit": "%"},
      {"measurement": "CETP level, Baseline", "setting": "[1]; 300 mg q.d.", "value": 2.5, "unit": "µg/mL"},
      {"measurement": "CETP level, week 4", "setting": "[1]; 300 mg q.d.", "value": 2.2, "unit": "µg/mL"},
      {"measurement": "Atherogenic index Mean percentage CFB - 20 weeks results", "setting": "[2]; [3]", "value": "−6.93", "unit": "%"},
      {"measurement": "Atherogenic index Median CFB - 20 weeks results", "setting": "[2]; [3]", "value": -0.25, "unit": "mmol/L"},
      {"measurement": "Atherogenic index Mean percentage CFB - 20 weeks results", "setting": "[2]; [4]", "value": "−6.67", "unit": "%"},
      {"measurement": "Atherogenic index Median CFB - 20 weeks results", "setting": "[2]; [4]", "value": -0.21, "unit": "mmol/L"},
      {"measurement": "Atherogenic index Mean percentage CFB - 20 weeks results", "setting": "[2]; [5]", "value": "−8.51", "unit": "%"},
      {"measurement": "Atherogenic index Median CFB - 20 weeks results", "setting": "[2]; [5]", "value": -0.22, "unit": "mmol/L"},
      {"measurement": "Atherogenic index Mean percentage CFB - 20 weeks results", "setting": "[2]; [6]", "value": "−3.49", "unit": "%"},
      {"measurement": "Atherogenic index Median CFB - 20 weeks results", "setting": "[2]; [6]", "value": -0.13, "unit": "mmol/L"},
      {"measurement": "Atherogenic index Mean percentage CFB - 20 weeks results", "setting": "[2]; [7]", "value": "−1.27", "unit": "%"},
      {"measurement": "Atherogenic index Median CFB - 20 weeks results", "setting": "[2]; [7]", "value": -0.13, "unit": "mmol/L"},
      {"measurement": "Atherogenic index Mean percentage CFB - 20 weeks results", "setting": "[2]; [8]", "value": "−0.22", "unit": "%"},
      {"measurement": "Atherogenic index Median CFB - 20 weeks results", "setting": "[2]; [8]", "value": -0.06, "unit": "mmol/L"},
      {"measurement": "Atherogenic index Mean percentage CFB - 20 weeks results", "setting": "[2]; [9]", "value": 3.38, "unit": "%"},
      {"measurement": "Atherogenic index Median CFB - 20 weeks results", "setting": "[2]; [9]", "value": 0.01, "unit": "mmol/L"},
      {"measurement": "Atherogenic index Mean percentage CFB - 20 weeks results", "setting": "[2]; [10]", "value": "−12.02", "unit": "%"},
      {"measurement": "Atherogenic index Median CFB - 20 weeks results", "setting": "[2]; [10]", "value": -0.37, "unit": "mmol/L"},
      {"measurement": "Atherogenic index Mean percentage CFB - 20 weeks results", "setting": "[2]; [11]", "value": "−12.95", "unit": "%"},
      {"measurement": "Atherogenic index Median CFB - 20 weeks results", "setting": "[2]; [11]", "value": -0.38, "unit": "mmol/L"},
      {"measurement": "Atherogenic index Mean percentage CFB - 20 weeks results", "setting": "[2]; [12]", "value": "−13.82", "unit": "%"},
      {"measurement": "Atherogenic index Median CFB - 20 weeks results", "setting": "[2]; [12]", "value": -0.48, "unit": "mmol/L"},
      {"measurement": "Atherogenic index Mean percentage CFB - 20 weeks results", "setting": "[2]; [13]", "value": "−11.54", "unit": "%"},
      {"measurement": "Atherogenic index Median CFB - 20 weeks results", "setting": "[2]; [13]", "value": -0.48, "unit": "mmol/L"},
      {"measurement": "Atherogenic index Mean percentage CFB - 20 weeks results", "setting": "[2]; [14]", "value": "−5.12", "unit": "%"},
      {"measurement": "Atherogenic index Median CFB - 20 weeks results", "setting": "[2]; [14]", "value": -0.25, "unit": "mmol/L"},
      {"measurement": "Atherogenic index Mean percentage CFB - 20 weeks results", "setting": "[2]; [15]", "value": "−4.54", "unit": "%"},
      {"measurement": "Atherogenic index Median CFB - 20 weeks results", "setting": "[2]; [15]", "value": -0.15, "unit": "mmol/L"},
      {"measurement": "Atherogenic index Mean percentage CFB - 20 weeks results", "setting": "[2]; [16]", "value": "−8.14", "unit": "%"},
      {"measurement": "Atherogenic index Median CFB - 20 weeks results", "setting": "[2]; [16]", "value": -0.39, "unit": "mmol/L"},
      {"measurement": "Atherogenic index Mean percentage CFB - 20 weeks results", "setting": "[2]; 200 mg q.d. week 0 to 10, to placebo week 10 to 20, week 2", "value": "−7.38", "unit": "%"}
    ]}
  ]
}
